In article PMC10709440, “High-throughput ligand profile characterization in novel cell lines expressing seven heterologous insect olfactory receptors for the detection of volatile plant biomarkers” (Scientific Reports, 2023):
“And” between values parts separate entries of the source, which are not always exact repeats. Equal entries are not always repeated. Where two headings read alike, the source gives them in different places.

How the values were obtained:
Drosophila OR98a = target: T1, Drosophila OR98a (Drosophila melanogaster, UniProt Q9VAZ3); test: Calcium ion fluorescence (GCaMP6) assay, OR98a stable HEK293 cell line; format: cell-based
T1 construct: expressed in transfected cells
T1 sequence (Q9VAZ3 1-397): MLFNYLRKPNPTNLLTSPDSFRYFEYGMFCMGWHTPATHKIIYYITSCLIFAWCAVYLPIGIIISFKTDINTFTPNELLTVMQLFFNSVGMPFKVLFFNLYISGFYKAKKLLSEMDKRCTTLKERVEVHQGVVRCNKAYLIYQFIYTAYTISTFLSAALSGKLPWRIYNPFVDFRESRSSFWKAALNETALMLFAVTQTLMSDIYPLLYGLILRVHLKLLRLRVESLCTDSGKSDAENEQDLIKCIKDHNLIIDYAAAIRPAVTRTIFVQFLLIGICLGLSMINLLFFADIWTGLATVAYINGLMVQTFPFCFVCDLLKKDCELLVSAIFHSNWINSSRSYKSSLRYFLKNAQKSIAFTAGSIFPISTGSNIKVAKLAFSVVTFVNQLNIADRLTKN
T1 sequence (Q9VNB5 1-486 partner): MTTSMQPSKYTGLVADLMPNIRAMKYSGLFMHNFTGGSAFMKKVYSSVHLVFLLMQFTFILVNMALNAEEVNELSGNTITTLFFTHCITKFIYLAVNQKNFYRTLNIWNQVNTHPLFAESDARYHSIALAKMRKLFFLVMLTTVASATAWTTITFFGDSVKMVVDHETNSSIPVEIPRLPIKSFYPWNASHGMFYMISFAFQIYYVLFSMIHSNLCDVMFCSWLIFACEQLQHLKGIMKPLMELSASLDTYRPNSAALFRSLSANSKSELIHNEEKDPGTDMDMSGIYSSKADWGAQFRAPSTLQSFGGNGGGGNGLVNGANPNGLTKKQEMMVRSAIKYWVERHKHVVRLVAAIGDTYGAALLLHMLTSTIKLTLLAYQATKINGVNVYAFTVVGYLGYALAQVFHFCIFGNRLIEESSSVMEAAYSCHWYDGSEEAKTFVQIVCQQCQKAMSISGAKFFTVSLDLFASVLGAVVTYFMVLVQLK
Method in brief: (§1)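 HEK293 lines stably expressing each Drosophila OR with GCaMP6, doxycycline-induced (1 μg/mL) 48 or 72 h. Fluorescence recorded 5 s baseline then 30 s after VOC injection at pH 7.3; ΔF=(FMAX−F0)/F0, normalized to 50 µM VUAA1 response per line, triplicate wells averaged; concentration series 0.01–100 μM.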

Drosophila OR85b = target: T2, Drosophila OR85b (Drosophila melanogaster, UniProt Q9VHQ7); test: Calcium ion fluorescence (GCaMP6) assay, OR85b stable HEK293 cell line; format: cell-based; details: for Average response: VUAA1-normalized response, mean of biological replicates
T2 construct: expressed in transfected cells
T2 sequence (Q9VHQ7 1-390): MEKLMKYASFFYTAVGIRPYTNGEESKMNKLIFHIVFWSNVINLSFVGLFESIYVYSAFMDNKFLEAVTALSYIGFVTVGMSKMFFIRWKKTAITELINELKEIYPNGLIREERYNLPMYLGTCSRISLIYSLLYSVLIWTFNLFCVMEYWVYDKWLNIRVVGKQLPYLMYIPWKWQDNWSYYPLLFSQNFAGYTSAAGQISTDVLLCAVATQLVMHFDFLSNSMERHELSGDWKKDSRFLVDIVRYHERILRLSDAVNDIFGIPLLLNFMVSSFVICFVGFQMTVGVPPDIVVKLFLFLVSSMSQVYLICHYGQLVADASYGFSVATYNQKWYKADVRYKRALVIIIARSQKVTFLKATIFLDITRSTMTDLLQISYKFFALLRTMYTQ
T2 sequence (Q9VNB5 1-486 partner): T1 sequence (Q9VNB5 1-486 partner)
Method in brief: as §1

[1] = HEK293, read-out: Average response
[2] = ligand concentration 1 (unit not given), 0.05 threshold, values below shown as 0
[3] = ligand concentration 10 (unit not given), 0.05 threshold, values below shown as 0
[4] = ligand concentration 100 (unit not given), 0.05 threshold, values below shown as 0
[5] = HEK293, read-out: OR85b Average response (VUAA1-normalized)
[6] = HEK293, read-out: OR98a Average response (VUAA1-normalized)
[7] = HEK293, read-out: OR98a response (VUAA1-normalized response)
[8] = concentration 1, normalized fluorescence change, values below 0.05 threshold given as 0
[9] = concentration 10, normalized fluorescence change, values below 0.05 threshold given as 0
[10] = concentration 100, normalized fluorescence change, values below 0.05 threshold given as 0
[11] = HEK293, read-out: OR85b response (VUAA1-normalized response)
[12] = VOC concentration 0.15 (unit not given)
[13] = VOC concentration 0.3 (unit not given)
[14] = VOC concentration 0.6 (unit not given)
[15] = VOC concentration 1.25 (unit not given)
[16] = VOC concentration 2.5 (unit not given)
[17] = VOC concentration 5 (unit not given)
[18] = VOC concentration 10 (unit not given)
[19] = VOC concentration 20 (unit not given)
[20] = VOC concentration 40 (unit not given)
[21] = VOC concentration 60 (unit not given)
[22] = VOC concentration 80 (unit not given)
[23] = VOC concentration 100 (unit not given)

Compound: CC1=CCC23CC1C(C)(C)C2CCC3C (stereo not drawn) [α-funebrene]
- activation at 1 µM (Drosophila OR98a; [1]): 0%
- activation at 10 µM (Drosophila OR98a; [1]): 9%
- activation at 100 µM (Drosophila OR98a; [1]): 5%
- OR98a response (VUAA1-normalized) at 1 μM (Drosophila OR98a; OR98a cell line, VOC concentration 1 μM): 0.00
- OR98a response (VUAA1-normalized) at 10 μM (Drosophila OR98a; OR98a cell line, VOC concentration 10 μM): 0.09
- OR98a response (VUAA1-normalized) at 100 μM (Drosophila OR98a; OR98a cell line, VOC concentration 100 μM): 0.05
- DF norm AVERAGE OR98a (Drosophila OR98a; [2]): 0
- DF norm AVERAGE OR98a (Drosophila OR98a; [3]): 0.08582
- DF norm AVERAGE OR98a (Drosophila OR98a; [4]): 0.05199
- activation at 1 µM (Drosophila OR85b; [5]): 10%
- activation at 10 µM (Drosophila OR85b; [5]): 0%
- activation at 100 µM (Drosophila OR85b; [5]): 26%
- OR85b response (VUAA1-normalized) at 1 μM (Drosophila OR85b; OR85b cell line, VOC concentration 1 μM): 0.10
- OR85b response (VUAA1-normalized) at 10 μM (Drosophila OR85b; OR85b cell line, VOC concentration 10 μM): 0.00
- OR85b response (VUAA1-normalized) at 100 μM (Drosophila OR85b; OR85b cell line, VOC concentration 100 μM): 0.26
- Average response (Drosophila OR85b; OR85b cell line, cc. 1 µM): 0.10
- Average response (Drosophila OR85b; OR85b cell line, cc. 10 µM): 0.00
- Average response (Drosophila OR85b; OR85b cell line, cc. 100 µM): 0.26
- DF norm AVERAGE OR85b (Drosophila OR85b; [2]): 0.09747
- DF norm AVERAGE OR85b (Drosophila OR85b; [3]): 0
- DF norm AVERAGE OR85b (Drosophila OR85b; [4]): 0.2621

Compound: CCCCCC(C)=O [2-heptanone]
- activation at 1 µM (Drosophila OR98a; [1]): 7%
- activation at 10 µM (Drosophila OR98a; [1]): 1.68%
- activation at 100 µM (Drosophila OR98a; [1]): 11%
- activation at 1 µM (Drosophila OR98a; [6]): 7%
- activation at 10 µM (Drosophila OR98a; [6]): 2%
- activation at 100 µM (Drosophila OR98a; [6]): 11%
- activation at 1 µM (Drosophila OR98a; [7]): 7%
- activation at 10 µM (Drosophila OR98a; [7]): 0%
- activation at 100 µM (Drosophila OR98a; [7]): 11%
- DF norm AVERAGE OR98a (Drosophila OR98a; [8]): 0.06738
- DF norm AVERAGE OR98a (Drosophila OR98a; [9]): 0
- DF norm AVERAGE OR98a (Drosophila OR98a; [10]): 0.1149
- EC50 (Drosophila OR85b; AVERAGE EC50, from average LOG EC50, N 5): 68.9 µM
- EC50 (Drosophila OR85b; EC50 (fitted parameter), individual biological replicates): 50.9 µM and 47.5 µM and 41.7 µM and 42.2 µM
- EC50 (Drosophila OR85b; EC50, AVERAGE, arithmetic average of 5 replicate EC50): 110 µM
- EC50 (Drosophila OR85b; EC50, FITTED AVERAGE CURVE, fit to the average curve): 72.2 µM
- EC50 (Drosophila OR85b; EC50, OR85b cell line, fitted Hill equation, Hill coefficient constrained to 1, maximal response max 1): 68.9 µM
- activation at 1 µM (Drosophila OR85b; [5]): 4%
- activation at 10 µM (Drosophila OR85b; [5]): 20%
- activation at 100 µM (Drosophila OR85b; [5]): 55%
- activation at 1 µM (Drosophila OR85b; [11]): 0%
- activation at 10 µM (Drosophila OR85b; [11]): 20%
- activation at 100 µM (Drosophila OR85b; [11]): 55%
- Emax (Drosophila OR85b; HEK293, read-out: VUAA1 normalized MAX response): 72%
- EC50 (Drosophila OR85b; LOG EC50 (fitted parameter), individual biological replicates, OR85b D-R sheet): 50.9 µM and 47.5 µM and 41.7 µM and 42.2 µM
- EC50 (Drosophila OR85b; LOG EC50, AVERAGE, average of 5 biological replicates): 68.9 µM
- Average response (Drosophila OR85b; OR85b cell line, cc. 1 µM): 0.037
- Average response (Drosophila OR85b; OR85b cell line, cc. 10 µM): 0.20
- Average response (Drosophila OR85b; OR85b cell line, cc. 100 µM): 0.55
- response, AVERAGE (Drosophila OR85b; [12]): 0
- response, biological replicates (Drosophila OR85b; [12]): 0
- response, AVERAGE (Drosophila OR85b; [13]): 0
- response, biological replicates (Drosophila OR85b; [13]): 0
- response, AVERAGE (Drosophila OR85b; [14]): 0.02418
- response, biological replicates (Drosophila OR85b; [14]): 0 (3×) and 0.06045 (2×)
- response, AVERAGE (Drosophila OR85b; [15]): 0
- response, biological replicates (Drosophila OR85b; [15]): 0
- response, AVERAGE (Drosophila OR85b; [16]): 0
- response, biological replicates (Drosophila OR85b; [16]): 0
- response, AVERAGE (Drosophila OR85b; [17]): 0.05175
- response, biological replicates (Drosophila OR85b; [17]): 0 (2×) and 0.08029 and 0.08922 (2×)
- response, AVERAGE (Drosophila OR85b; [18]): 0.07565
- response, biological replicates (Drosophila OR85b; [18]): 0.1715 and 0 and 0.05971 and 0.07351 (2×)
- response, AVERAGE (Drosophila OR85b; [19]): 0.1574
- response, biological replicates (Drosophila OR85b; [19]): 0.2412 and 0.05753 and 0.1726 and 0.1579 (2×)
- response, AVERAGE (Drosophila OR85b; [20]): 0.2822
- response, biological replicates (Drosophila OR85b; [20]): 0.4423 and 0.101 and 0.2153 and 0.3264 (2×)
- response, AVERAGE (Drosophila OR85b; [21]): 0.3295
- response, biological replicates (Drosophila OR85b; [21]): 0.5597 and 0.152 and 0.2767
- response, AVERAGE (Drosophila OR85b; [22]): 0.3923
- response, biological replicates (Drosophila OR85b; [22]): 0.6627 and 0.1546 and 0.3278 and 0.4082 (2×)
- response, AVERAGE (Drosophila OR85b; [23]): 0.3199
- response, biological replicates (Drosophila OR85b; [23]): 0.2321 and 0.3319 and 0.3577 (2×)
- AVERAGE MAX (Drosophila OR85b; average of 5 biological replicates): 0.7284
- DF norm AVERAGE OR85b (Drosophila OR85b; [8]): 0
- DF norm AVERAGE OR85b (Drosophila OR85b; [9]): 0.1962
- DF norm AVERAGE OR85b (Drosophila OR85b; [10]): 0.5508
- MAX, fitted average curve (Drosophila OR85b; fit to the average curve): 0.6682
- MAX (fitted parameter) (Drosophila OR85b; individual biological replicates): 1 (2×) and 0.5003 and 0.5695 and 0.5722

Compound: C=C1CC/C=C(\C)CC[C@@H]2[C@@H]1CC2(C)C [(-)-trans-caryophyllene]
- activation at 1 µM (Drosophila OR98a; [1]): 7%
- activation at 10 µM (Drosophila OR98a; [1]): 6%
- activation at 100 µM (Drosophila OR98a; [1]): 6%
- activation at 1 µM (Drosophila OR98a; [7]): 7%
- activation at 10 µM (Drosophila OR98a; [7]): 6%
- activation at 100 µM (Drosophila OR98a; [7]): 6%
- DF norm AVERAGE OR98a (Drosophila OR98a; [8]): 0.06975
- DF norm AVERAGE OR98a (Drosophila OR98a; [9]): 0.06201
- DF norm AVERAGE OR98a (Drosophila OR98a; [10]): 0.05748
- activation at 1 µM (Drosophila OR85b; [11]): 0%
- activation at 10 µM (Drosophila OR85b; [11]): 0%
- activation at 100 µM (Drosophila OR85b; [11]): 0%
- Average response (Drosophila OR85b; OR85b cell line, cc. 1 µM): 0.00
- Average response (Drosophila OR85b; OR85b cell line, cc. 10 µM): 0.00
- Average response (Drosophila OR85b; OR85b cell line, cc. 100 µM): 0.0238
- DF norm AVERAGE OR85b (Drosophila OR85b; [8]): 0
- DF norm AVERAGE OR85b (Drosophila OR85b; [9]): 0
- DF norm AVERAGE OR85b (Drosophila OR85b; [10]): 0
